Measurements reported in paper PMC11855827, “High-Throughput Screening of Five Compound Libraries for Anthelmintic Activity and Toxicity Leads to the Discovery of Two Flavonoid Compounds” (International Journal of Molecular Sciences, 2025).
“And” between values parts separate entries of the source, which are not always exact repeats. Equal values may be shown once.

Tested on: C. elegans
Details: 110 μM; for Percentage of motility inhibition 0 h / Percentage of motility inhibition 24 h: Table S2, C. elegans SS assay, averages of 4 data points

Row | Molecule | Percentage of motility inhibition 0 h | Percentage of motility inhibition 24 h (24 h) | Inhibition (%) 110 μM (24 h) (C. elegans L4 motility, 24 h, mean ± SD of four experiments) [%]
1 | COc1ccc(-c2cc(=O)c3c(OC)cc(OC)cc3o2)cc1 [5,7,4'‐Trimethoxyflavone] | 0% | 1% | –
2 | Astragaloside I | 13% | 23% | –
3 | CN1CCCN=C1/C=C/c1cccs1.O=C(O)C(O)C(O)C(=O)O [Pyrantel tartrate, reference compound] | 85% | 61% | 26 ± 1
4 | CC(C)=CCC[C@](C)(O[C@@H]1O[C@H](CO[C@@H]2O[C@H](CO)[C@@H](O)[C@H](O)[C@H]2O)[C@@H](O)[C@H](O)[C@H]1O)[C@H]1CC[C@]2(C)[C@@H]1[C@H](O)C[C@@H]1[C@@]3(C)CC[C@H](O[C@@H]4O[C@H](CO)[C@@H](O)[C@H](O)[C@H]4O[C@@H]4O[C@H](CO)[C@@H](O)[C@H](O)[C@H]4O[C@@H]4OC[C@@H](O)[C@H](O)[C@H]4O)C(C)(C)[C@@H]3CC[C@]12C [Notoginsenoside Fa] | 7% | 33% | –
5 | COC(=O)C1=COC2OC3CC1C2C(C)O3 (centres unmarked) [Sarracenin] | 11% | 27% | –
6 | CC(=O)O[C@H]1C(=O)[C@@]2(C)[C@H]([C@H](OC(=O)c3ccccc3)[C@]3(O)C[C@H](OC(=O)[C@H](O)[C@@H](NC(=O)c4ccccc4)c4ccccc4)C(C)=C1C3(C)C)[C@]1(OC(C)=O)CO[C@@H]1C[C@@H]2O [Paclitaxel] | 18% and 29% | 12% and 23% | –
7 | (±)‐Naringenin | 0% | 18% | –
8 | COc1cc2c(cc1O)CCN1Cc3c(ccc(OC)c3OC)CC21 (centres unmarked) [Corypalmine] | 17% | 16% | –
9 | CC(C)(C)OC(=O)N1CCC[C@H]1c1nc(C(=O)O)cs1 [Antibiotic‐5d] | 0% | 0% | –
10 | COc1ccc(-c2oc3c(CC=C(C)C)c(O)cc(O)c3c(=O)c2O[C@@H]2O[C@@H](C)[C@H](O)[C@@H](O)[C@H]2O)cc1 [Baohuoside I] | 0% | 0% | –
11 | C=C1CC[C@@H]2[C@](C)(COC(=O)CCC(=O)[O-])[C@H](OC(=O)CCC(=O)O)CC[C@@]2(C)[C@@H]1/C=C/C1=CCOC1=O.[K+] [Kalii Dehydrographolidi Succinas] | 5% | 5% | –
12 | Cl.c1ccc(CC2=NCCN2)cc1 [Tolazoline (hydrochloride)] | 21% | 0% | –
13 | C[C@H](CC[C@@H](O[C@@H]1O[C@H](CO)[C@@H](O)[C@H](O)[C@H]1O[C@H]1O[C@@H](CO)[C@H](O)[C@@H](O)[C@@H]1O)C(C)(C)O)C1CC[C@@]2(C)C3CC=C4C(CC[C@H](O)C4(C)C)[C@]3(C)C(=O)C[C@]12C (some centres unmarked) [11-Oxomogroside IIa] | 0% | 0% | –
14 | CC1OC2OC3C(OCC(O)C3O)OC(=O)C34CCC(C)(C)CC3C3=CCC5C6(C)CC(O)C(OC7OC(CO)C(O)C(O)C7OC7OCC(OC(=O)CC(C)(O)CC(=O)OC1C(OC1OCC(O)C(O)C1O)C2O)C(O)C7O)C(C)(CO)C6CCC5(C)C3(C)CC4O (centres unmarked) [Tubeimoside II] | 0% | 2% | –
15 | COc1cc(/C=C/C(=O)NCCc2c[nH]c3ccc(O)cc23)ccc1O [N‐Feruloylserotonin] | 11% | 18% | –
16 | Isoliquiritin apioside | 47% | 8% | –
17 | Schaftoside | 0% | 3% | –
18 | CCC(C)C1NC(=O)C(C)NC1=O (centres unmarked) [Cyclo(Ile‐Ala)] | 16% | 22% | –
19 | O=C(/C=C/c1ccc(O)cc1)OC[C@H]1O[C@@H](Oc2c(-c3ccc(O)cc3)oc3cc(O)cc(O)c3c2=O)[C@H](O)[C@@H](O)[C@@H]1O [Tribuloside] | 13% | 16% | –
20 | COc1cc(-c2oc3cc(O)cc(O)c3c(=O)c2O[C@@H]2O[C@H](CO[C@@H]3O[C@@H](C)[C@H](O)[C@@H](O)[C@H]3O)[C@@H](O)[C@H](O)[C@H]2O[C@@H]2O[C@@H](C)[C@H](O)[C@@H](O)[C@H]2O)ccc1O [Typhaneoside] | 26% | 15% | –
21 | CC(C)[C@@H]1[C@H]2OC(=O)[C@@H]1[C@@H]1CC[C@@H]3CN(C)[C@H]2[C@@]31C [Dendrobine] | 0% | 3% | –

Row | Molecule | Percentage of motility inhibition 0 h | Percentage of motility inhibition 24 h (24 h) | Inhibition (%) 110 μM (24 h) (C. elegans L4 motility, 24 h, mean ± SD of four experiments) [%]
22 | O=C(O[C@@H]1Cc2c(O)cc(O)cc2O[C@@H]1c1cc(=O)c(O)c2c(O)c(O)cc([C@H]3Oc4cc(O)cc(O)c4C[C@H]3O)c2c1)c1cc(O)c(O)c(O)c1 [Theaflavin‐3‐gallate] | 8% | 22% | –
23 | COC(=O)[C@]1(C)CC[C@]2(C(=O)O[C@@H]3O[C@H](CO)[C@@H](O)[C@H](O)[C@H]3O)CC[C@]3(C)C(=CC[C@@H]4[C@@]5(C)C[C@H](O)[C@H](O[C@@H]6OC[C@@H](O[C@@H]7O[C@H](CO)[C@@H](O)[C@H](O)[C@H]7O)[C@H](O)[C@H]6O)[C@@](C)(CO)C5CC[C@]43C)[C@H]2C1 (some centres unmarked) [Esculentoside H] | 0% | 17% | –
24 | (‐)‐Epigalloca techin | 3% | 0% | –
25 | CC(=O)OC/C1=C\[C@H]2[C@@H](OC(=O)/C=C/c3ccccc3)[C@@H](C)C[C@]2(OC(C)=O)C(=O)/C(C)=C/[C@@H]2[C@H](CC1)C2(C)C [Euphorbia factor L7a] | 21% | 23% | –
26 | Aprotinin | 4% | 9% | –
27 | C=C(C)[C@@H]1CC=C(C=O)CC1 [L-Perillaldehyde] | 22% | 25% | –
28 | Cc1c(N(C)CS(=O)(=O)[O-])c(=O)n(-c2ccccc2)n1C.[Na+] [Metamizole (sodium)] | 17% | 2% | –
29 | CC(Cc1ccc(O)c(O)c1)C(C)Cc1ccc(O)c(O)c1 (centres unmarked) [Nordihydroguaiaretic acid] | 8% | 21% | –
30 | C/C=C/c1cc(OC)c(OC)cc1OC [alpha-Asarone] | 49% | 29% | –
31 | COc1cc(-c2coc3cc4c(c(O)c3c2=O)OCO4)cc(O)c1OC [Dichotomitin] | 34% | 22% | –
32 | CC(=O)O[C@H]1[C@H](O[C@H]2CC[C@]34C[C@]35CC[C@]3(C)[C@@H]([C@@]6(C)CC[C@@H](C(C)(C)O)O6)[C@@H](O)C[C@@]3(C)[C@@H]5C[C@H](O[C@@H]3O[C@H](CO)[C@@H](O)[C@H](O)[C@H]3O)[C@H]4C2(C)C)OC[C@@H](OC(C)=O)[C@@H]1O [Isoastragaloside I] | 12% | 59% | –
33 | COc1cc(-c2cc(=O)c3c(O)c(OC)c(O)cc3o2)ccc1O [Jaceosidin] | 0% | 5% | –
34 | C[C@@H]1O[C@@H](O[C@H]2[C@H](OC(=O)[C@]34CCC(C)(C)C[C@H]3C3=CC[C@@H]5[C@@]6(C)C[C@H](O)[C@H](O[C@@H]7O[C@H](CO)[C@@H](O)[C@H](O)[C@H]7O)[C@](CO)(C(=O)O)[C@@H]6CC[C@@]5(C)[C@]3(C)C[C@H]4O)OC[C@H](O)[C@@H]2O)[C@H](O)[C@H](O)[C@H]1O[C@@H]1OC[C@@H](O)[C@H](O[C@@H]2OC[C@](O)(CO)[C@H]2O)[C@H]1O [Platyconic acid A] | 0% | 5% | –
35 | CC1(C)[C@@H](O[C@@H]2OC[C@H](O[C@@H]3O[C@H](CO)[C@@H](O)[C@H](O)[C@H]3O[C@@H]3OC[C@@H](O)[C@H](O)[C@H]3O)[C@H](O)[C@H]2O[C@@H]2O[C@H](CO)[C@@H](O)[C@H](O)[C@H]2O)CC[C@]2(C)[C@H]3CC[C@]45OC[C@@]6(CC[C@](C)(C=O)C[C@H]64)[C@H](O)C[C@@]5(C)[C@]3(C)CC[C@@H]12 [Ardisiacrispin A] | 22% | 0% | –
36 | C=C(CCC=C(C)C)[C@H]1CC[C@]2(C)[C@@H]1[C@H](O)C[C@@H]1[C@@]3(C)CC[C@H](O)C(C)(C)[C@@H]3[C@@H](O[C@@H]3O[C@H](CO)[C@@H](O)[C@H](O)[C@H]3O[C@@H]3O[C@@H](C)[C@H](O)[C@@H](O)[C@H]3O)C[C@]12C [Ginsenoside Rg6] | 1% | 4% | –
37 | C[N+](C)(C)CCO.[Cl-] [Choline (chloride)] | 51% | 17% | –
38 | CC(=O)OC(C)(C)CCC(=O)[C@](C)(O)[C@H]1[C@H](O)C[C@@]2(C)[C@@H]3CC=C4[C@@H](C[C@H](O)[C@@H](O)C4(C)C)[C@]3(C)C(=O)C[C@]12C [Cucurbitacin IIa] | 0% | 6% | –
39 | COC[C@@]12CC[C@H](OC)[C@]34C([C@H]([C@H](OC)[C@H]13)[C@]1(O)[C@H]3[C@@H](OC(=O)c5ccccc5)[C@](O)(C[C@H]34)[C@@H](OC)[C@@H]1O)N(C)C2 [Benzoylhypaconine] | 5% | 0% | –
40 | COC(=O)C1=COC(O[C@@H]2O[C@H](CO)[C@@H](O)[C@H](O)[C@H]2O)/C(=C/C(=O)O)C1CC(=O)OCCc1ccc(O)cc1 (some centres unmarked) [Ligustrosidic acid] | 3% | 24% | –
41 | COC(=O)C1=CO[C@@H](O[C@@H]2O[C@H](CO)[C@@H](O)[C@H](O)[C@H]2O)[C@@H]2[C@@]3(C)O[C@H]3[C@@H](O)[C@]12O [Sesamoside] | 4% | 25% | –
